Measurements reported in patent publication US20240398818A1, “Cardiosafe Antidiabetic Therapy” (priority 2018, published 2024).

System: adult patients with type 2 diabetes mellitus and with increased or high or very high CV risk evidenced by a history of established macrovascular or renal …
Experiment: Cardiovascular (Safety) and Renal Microvascular Outcome Trial (linagliptin versus placebo)
Type: in vivo
Conditions: for All-cause mortality, Hazard Ratio: linagliptin vs placebo
Procedure: The effect of linagliptin on cardiovascular risk in adult patients with type 2 diabetes mellitus and with increased or high or very high CV risk evidenced by a history of established macrovascular or renal disease was evaluated in a Cardiovascular and Renal Microvascular Outcome Trial, a multi-center, multi-national, randomized, double-blind parallel group trial. The trial compared the risk of experiencing a major adverse cardiovascular event (MACE) between linagliptin and placebo when these were added to and used concomitantly with standard of care treatments for diabetes and other cardiovascular risk factors. The trial was event driven and patients were followed until at least 611 primary outcome events accrued.
A total of 6979 patients were treated (linagliptin 5 mg=3494; placebo=3485) and followed for a median of 2.2 years (median time on treatment 1.9 years). Approximately 80% of the study population was Caucasian, 9% was Asian, and 6% was Black. The mean age was 66 years and 63% were male.
The trial population included 1211 (17.4%) patients ≥75 years of age and 4348 (62.3%) patients with renal impairment. Approximately 19% of the population had eGFR ≥45 to <60 mL/min/1.73 m2, 28% of the population had eGFR ≥30 to <45 mL/min/1.73 m2 and 15% had eGFR <30 mL/min/1.73 m2. Overall, the use of diabetes medications was balanced across treatment groups (metformin 54%, sulfonylurea 32%, and insulin 57%). The use of medications to reduce cardiovascular risk was also balanced (aspirin 62%, statins 72%, ACE inhibitors or ARBs 81%, beta blockers 60%, and calcium channel blockers 41%).
The primary endpoint in the Cardiovascular and Renal Microvascular Outcome Trial was the time to first occurrence of three point (3P) MACE. A major adverse cardiac event was defined as a cardiovascular death or a nonfatal myocardial infarction (MI) or a nonfatal stroke. The statistical analysis plan tested for non-inferiority for the occurrence of (3P) MACE. The secondary endpoint was a renal composite, defined as renal death or sustained end stage renal disease or sustained decrease of 40% or more in eGFR.
The microvascular endpoint was defined as the composite of renal death, sustained ESRD, sustained decrease of ≥50% in eGFR, albuminuria progression, use of retinal photocoagulation or intravitreal injections of an anti-VEGF therapy for diabetic retinopathy or vitreous hemorrhage or diabetes-related-blindness. The estimated hazard ratio for time to first occurrence for the composite microvascular endpoint was 0.86 (95% CI 0.78, 0.95) for linagliptin versus placebo; mainly driven by albuminuria progression.
People with type 2 diabetes (T2D) with concomitant chronic kidney disease (CKD) and cardiovascular (CV) disease are at increased risk for recurrent CV events and hypoglycemia. Treatment of these individuals is clinically challenging, where the evidence-base for safety and efficacy of glucose lowering drugs is scarce, in particular in GFR categories G3b (eGFR 30-44 ml/min/1.73 m2), G4 (eGFR <30) and G5 (eGFR <15). We analyzed baseline characteristics and effects on CV and kidney outcomes with the DPP-4 inhibitor linagliptin (LINA) vs. placebo (PBO), across GFR categories in the Cardiovascular and Renal Microvascular Outcome Trial. People with T2D and either i) UACR >30 mg/g with concomitant CV disease, or ii) eGFR <45 ml/min/1.73 m^2 regardless of UACR, or eGFR ≥45-75 mL/min/1.73 m^2 and UACR >200 mg/g, were randomized to LINA 5 mg or placebo (PBO) q.d. in a double-blind fashion. The primary outcome was first occurrence of CV death, non-fatal myocardial infarction, or non-fatal stroke (3P-MACE), with an adjudicated secondary composite outcome of ESKD, renal death, or sustained ≥40% decrease in eGFR from baseline. Other adjudicated outcomes included hospitalized heart failure (hHF) and the 3P-MACE components. Subgroup-effects across GFR categories (G≤2, G3a, G3b and G≥4) were also assessed. […]

[1] = LINA vs PBO, across all GFR categories
[2] = linagliptin relative to placebo, listed as linagliptin

CC#CCn1c(N2CCC[C@@H](N)C2)nc2c1c(=O)n(Cc1nc(C)c3ccccc3n1)c(=O)n2C [Linagliptin, 1-[(4-methyl-quinazolin-2-yl)methyl]-3-methyl-7-(2-butyn-1-yl)-8-(3-(R)-amino-piperidin-1-yl)-xanthine]
HbA1c (in words) [1]: reduced significantly
risk for hypoglycemia (in words) [1]: without increased risk
Progression of albuminuria category, patients with event / patients analysed (in vivo): 763/2162
risk of HHF regardless of baseline renal function (in words) (in vivo): did not affect
Hospitalization for heart failure, Hazard Ratio (linagliptin relative to placebo): 0.90
Secondary renal composite, Hazard Ratio (linagliptin relative to placebo, listed as LINA): 1.04
3P-MACE, Hazard Ratio (linagliptin relative to placebo, listed as TRADJENTA): 1.02
3P-MACE, Hazard Ratio [2]: 1.02
Secondary renal composite, Hazard Ratio [2]: 1.04
albuminuria progression (normo- to micro-/macroalbuminuria, or micro- to macroalbuminuria), hazard ratio (linagliptin versus placebo): 0.86
composite microvascular endpoint, time to first occurrence, hazard ratio (linagliptin versus placebo, mainly driven by albuminuria progression): 0.86
All-cause mortality, Hazard Ratio: 0.98
All-cause mortality, Hazard Ratio (listed as TRADJENTA): 0.98
All-cause mortality, Hazard Ratio (listed as linagliptin): 0.98
3P-MACE, Incidence Rate per 1000 PY (median follow-up 2.2 years): 57.7 per 1000 PY
3P-MACE, Subjects (%) (median follow-up 2.2 years): (12.4) %
All-cause mortality, Incidence Rate per 1000 PY (median follow-up 2.2 years): 46.9 per 1000 PY
All-cause mortality, Subjects (%) (median follow-up 2.2 years): (10.5) %
Hospitalization for heart failure, Incidence Rate per 1000 PY (median follow-up 2.2 years): 27.7 per 1000 PY
Hospitalization for heart failure, Number of Subjects (median follow-up 2.2 years): 209
Hospitalization for heart failure, Subjects (%) (median follow-up 2.2 years): (6.0) %
Secondary renal composite (renal death, ESRD, 40% sustained decrease in eGFR), Number of Subjects (median follow-up 2.2 years): 327
Secondary renal composite, Incidence Rate per 1000 PY (median follow-up 2.2 years): 48.9 per 1000 PY
Composite of first event of CV death, non-fatal MI, or non-fatal stroke (3P-MACE), Number of Subjects (median follow-up 2.2 years, added to standard of care): 434
All-cause mortality, Subjects (%) (median follow-up 2.2 years, listed as TRADJENTA): (10.5%)
Hospitalization for heart failure, Subjects (%) (median follow-up 2.2 years, listed as linagliptin): 6.0%
